Experimental data taken from EP1196154B1, “INHIBITION OF RENAL UPTAKE OF RADIOMOLECULES WITH A COMBINATION OF LYSINE AND ARGININE” (MALLINCKRODT, INC., priority 1999, dated 2001).
“And” between values parts separate entries of the source, which are not always exact repeats. Equal entries are not always repeated.

Tests used:
[1] = system: kidneys; details: Bernard et al.; cited from earlier work
[2] = system: kidneys; test: Renal uptake of [^111In-DTPA-D-Phe^1]octreotide in rats with amino acid administration; type: in vivo; details: for inhibition at 400 mg/kg: Rattus norvegicus
Protocol: Furthermore, it has been described by De Jong et al. in J. Nucl. Med 37(8): 1388-1392 (1996) that uptake in the rat kidneys of the [^111In-DTPA-D-Phe^1]octreotide can be inhibited by 50% by intravenous administration of the amino acid L-lysine alone (400 mg/kg). In a further article by Bernard et al. in J. Nucl.
L-arginine alone gave a reduction of 20-30% at an equimolar dose. In human studies 15, 21 and 40% reduction of kidney uptake of [^111In-DTPA-D-Phe^1]octreotide was reached using a dose of 25, 50 and 75 g L-lysine, respectively. […] Hyperkalemia may result in acute and life-threatening cardiotoxicity.

[3] = Vomiting and symptoms in patients during amino acid infusion; type: in vivo, humans
Protocol: 26 patients received 1 to 5 therapeutic doses of 1-10 GBq ^90Y-DOTA,Tyr^3-octreotide, with concomitant infusion of a 2030 mL cocktail of various amino acids in 4 hours, starting 30 min. before the administration of the radiopharmaceutical (see MATERIALS, paragraph B. for exact details). In 11 of these 26 patients (42%), [being 20 of 84 treatments (24%)] one or more episodes of vomiting occurred, up to 30 episodes of severe vomiting per treatment.
In one of these 11 patients the vomiting was so severe during the 2 treatments with the above described regimen, that it was decided to use an infusion with 50 g of L-lysine instead of the infusion with the cocktail of various amino acids concomitant with their 3rd and 4th therapy with ^90Y-DOTA,Tyr^3-octreotide.
8 patients received multiple therapeutic doses of 7-11 GBq ^111In-pentetreotide. All received once a concomitant infusion of a 2030 mL cocktail of various amino acids in 4 hours, starting 30 min. before the administration of the radiopharmaceutical (see MATERIALS, paragraph B. for exact details). In 4 of these 8 patients (50%) vomiting occurred.
In these same 8 patients only 3 episodes […] of vomiting occurred during 22 treatments with 7-11 GBq ^111In-pentetreotide while they received 25 or 50 grams of L-lysine in 500 to 2000 mL (see MATERIALS, paragraph C. for exact details) over 4 hours, starting 30 min. before administration of the radiopharmaceutical, as concomitant infusions.
In an experiment of the invention 11 patients received an infusion over 4 hours of a solution containing 25 g L-lysine and 25 g L-arginine in 1000 mL (Lys/Arg; see MATERIALS, paragraph A. for exact formulation). Thirty min. after the start of the infusion they received a diagnostic dose of 220 MBq ^111Inpentetreotide. Ten patients had no symptoms during the infusion, in particular no vomiting. […] During the Lys/Arg infusion they vomited twice.
Five patients received the Lys/Arg infusion in the same manner as described above, but they received a therapeutic dose of 1850 MBq [^177Lu-DOTA,Tyr^3]octreotate, 30 min. after the start of the Lys/Arg infusion. None of these 5 patients had any symptoms at all, in particular no vomiting.
Until now the Lys/Arg infusion, 1000 mL in 4 hours concomitant with therapeutic doses of radioactive labelled peptides, has been administered to more than 30 patients, in total more than 80 occasions. Vomiting occurs in less than 5% of the occasions, and if it occurs it is most probably due to other causes.

[4] = Serum potassium level in patients during amino acid infusion; type: in vivo, humans
Protocol: In an experiment of the invention 11 patients received an infusion over 4 hours of a solution containing 25 g L-lysine and 25 g L-arginine in 1000 mL (Lys/Arg; see MATERIALS, paragraph A. for exact formulation). The potassium level of these patients was measured in serum at t=0 hours and after 0.5, 1, 2, 4 and 5 hours.
As a control 6 patients received 75 g L-lysine in 1500 mL during 4 hours (see MATERIALS, paragraph C. for exact formulation).

[5] = system: kidneys; test: Kidney uptake of ^111In-pentetreotide in patients with amino acid infusion (planar scintigraphy and dosimetry); type: in vivo, humans; details: for reduction of kidney uptake of [^111In-DTPA-D-Phe^1]octreotide: human studies
Protocol: A 1000 mL infusion containing 25 g L-lysine and 25 g L-arginine (Lys/Arg; see MATERIALS, paragraph A. for exact formulation) was administered intravenously to patients during 4 hours, starting 30 minutes prior to administration of the radioligand. One radioligand was [^111In-DTPA-D-Phe^1]octreotide (^111In-pentetreotide, OctreoScan®, Mallinckrodt Medical, Petten, The Netherlands) in a diagnostic amount of 220 MBq (9 patients). Each patient was also investigated on a separate occasion with 220 MBq ^111In-pentetreotide, but without any infusion. The other radioligand was [^177Lu-DOTA,Tyr^3]octreotate in a therapeutic amount of 1850 MBq (5 patients). Each patient was also investigated on a separate occasion with 1850 MBq [^177Lu-DOTA,Tyr^3]-octreotate, but without any infusion. The control experiment (5 patients) consisted of infusion of 1000 mL neutral infusion fluid without the amino acids (NaCl 0.45% plus Glucose 2.5%)over 4 hours, starting 30 min. prior to the injection of 220 MBq ^111In-pentetreotide.
24 Hours post infusion the uptake of the radioligand in the kidneys, spleen and liver was measured using planar scintigraphy and dosimetry, and for each patient the ratio between uptake in these organs during infusion with Lys/Arg and without Lys/Arg was calculated (Figures 1, 2 and 3).
At least 5 patients received one of the following amino acid preparations: • 1. AA (2030 mL cocktail of various amino acids; see MATERIALS, paragraph B, for the source and details) • 2. 25 g L-lysine in 500 mL (see MATERIALS, paragraph C, for exact formulation) • 3. 50 g lysine in 2000 mL (see MATERIALS, paragraph C, for exact formulation) • 4. 75 g lysine in 1500 mL (see MATERIALS, paragraph C, for exact formulation) • 5. 25 g L-lysine and 25 g L-arginine in 1000 mL (invention), (Lys/Arg; see MATERIALS, paragraph A. for exact formulation).
The preparations were given intravenously over 4 hours starting 30 minutes before treatment with the radioligand started. The radioligand was ^111Inpentetreotide, either in a diagnostic amount of 220 MBq, or in a therapeutic amount, 7 - 11 GBq. Each patient was his or her own control. The control consisted of treatment with the radioligand but without an amino acid preparation.
At 24 and 48 hours post infusion the ratio between tissue uptake in the left kidney in patients receiving an amino acid composition and the controls was determined by planar scintigraphy and dosimetry.

[6] = Osmolarity of infusion fluids; type: physicochemical; details: infusion fluid as prepared

In the case of NCCCC[C@@H](N)C(=O)O [D-lysine], the “reducing the rat renal uptake of [^111In-DTPA-D-Phe^1]octreotide and ^90Y-DOTA,Tyr^3-octreotide” value [1] is given as “capable of reducing” and the inhibition at 400 mg/kg [2] is given as 50%.
In the case of N=C(N)NCCC[C@H](N)C(=O)O [L-arginine], the “reduction of renal uptake of [^111In-DTPA-D-Phe^1]octreotide in rats” value ([2]; alone, at an equimolar dose (to lysine 400 mg/kg)) is reported as 20-30%.
In the case of Lys/Arg, the “occasions on which vomiting occurs” value ([3]; human, in vivo) is reported as “less than 5%”, the “patients who suffered from vomiting” value ([3]; human, in vivo) is reported as “none” and the “tolerability on 4 later occasions in the same patient” value ([3]; human, in vivo) is reported as “without any problems”. For the same molecule, the “treatments in which vomiting occurred” value ([3]; human, in vivo) was 8% and the “patients having a maximum potassium value of 6.0 mmol/L” value ([4]; human, in vivo) was “one out of eleven”.
With NCCCC[C@H](N)C(=O)O [L-lysine] the inhibition at 400 mg/kg [2] was 50%, the “[^111In-DTPA-D-Phe^1]octreotide uptake reduction in the left kidney, rank among amino acid preparations (Figure 4)” value ([5]; 24 and 48 hours post infusion, 75 g L-lysine, 25 g L-lysine plus 25 g L-arginine) was “highest uptake reduction” and the “reduction of kidney uptake of [^111In-DTPA-D-Phe^1]octreotide” value ([5]; dose of 25 g) was 15%. For the same molecule, the “reduction of kidney uptake of [^111In-DTPA-D-Phe^1]octreotide” value ([5]; dose of 50 g) was 21%, the “reduction of kidney uptake of [^111In-DTPA-D-Phe^1]octreotide” value ([5]; dose of 75 g) was 40% and the “episodes of vomiting during treatments” value ([3]; 25 or 50 grams in 500 to 2000 mL over 4 hours, 7-11 GBq ^111In-pentetreotide, 3 episodes during 22 treatments, 8 patients) was 9%. The tolerability / toxicity ([3]; human studies, doses of 25 and 50 g) was “well tolerated without any toxicity noted”, the “vomiting (conclusion from EXAMPLES 4, 5 and 6)” value ([3]; infusion over 4 hours) was “seldomly observed” and the episodes of vomiting ([3]; one patient, 50 g, 3rd therapy with ^90Y-DOTA,Tyr^3-octreotide) was “one”. For the same molecule, the vomiting ([3]; one patient, 50 g, 4th therapy with ^90Y-DOTA,Tyr^3-octreotide) was “no vomiting at all”, the hyperkalemia ([4]; 75 g L-lysine (Table 2), 25 g L-lysine plus 25 g L-arginine (Table 1)) was “severe hyperkalemia” and the “patients with a maximum potassium level above the critical value of 6.0 mmol/L” value ([4]; 75 g in 1500 mL) was 3 out of 6. For the same molecule, the “maximum potassium (K) level in serum” value ([4]; 75 g in 1500 mL over 4 hours, single patients 12-17) was 5.2 mmol/L and 6.8 mmol/L and 6.7 mmol/L and 5.4 mmol/L and 5.0 mmol/L and 6.3 mmol/L, the “patients with severe hyperkalemia” value ([4]; humans, total dose of 75 g) was 50% and the osmolarity [6] was “ca. 400 mosmol/L”.
